Source: patent EP3241830A1, “CONDENSED BICYCLIC HETEROCYCLIC DERIVATIVES AS PESTICIDES” (Bayer CropScience Aktiengesellschaft, priority 2016, dated 2017)

Columns and labels:
[1] = logP determination by HPLC on a reversed-phase column (C18), EEC Directive 79/831 Annex V.A8; assay type: physicochemical; conditions: LC-MS in the acidic range, pH 2,7, 0,1 % aqueous formic acid and acetonitrile, 55°C, read-out: logP (HCOOH)
Procedure: Die Messung der logP Werte erfolgt gemäß EEC Directive 79/831 Annex V.A8 durch HPLC (High Performance Liquid Chromatography) an einer Phasenumkehrsäule (C 18). Temperatur: 55°C.
Die Bestimmung mit der LC-MS im sauren Bereich erfolgt bei pH 2,7 mit 0,1 % wässriger Ameisensäure und Acetonitril (enthält 0,1% Ameisensäure) als Eluenten; linearer Gradient von 10% Acetonitril bis 95% Acetonitril. In der Tabelle logP (HCOOH) genannt.
Die Eichung erfolgt mit unverzweigten Alkan-2-onen (mit 3 bis 16 Kohlenstoffatomen), deren logP-Werte bekannt sind (Bestimmung der logP-Werte anhand der Retentionszeiten durch lineare Interpolation zwischen zwei aufeinander folgenden Alkanonen).

[2] = system: Phaedon cochleariae; assay: Phaedon cochleariae spray test; assay type: in vivo; conditions: foliar, 168 h, after 7 days, sprayed Chinese cabbage leaf discs (Brassica pekinensis) with larvae, 100 % = all beetle larvae killed, read-out: Wirkung
Text: Lösungsmittel: • 78,0 Gewichtsteile Aceton • 1,5 Gewichtsteile Dimethylformamid Emulgator: Alkylarylpolyglykolether
(§1) Zur Herstellung einer zweckmäßigen Wirkstoffzubereitung löst man 1 Gewichtsteil Wirkstoff mit den angegebenen Gewichtsteilen Lösungsmittel und füllt mit Wasser, welches eine Emulgatorkonzentration von 1000 ppm enthält, bis zum Erreichen der gewünschten Konzentration auf. Zur Herstellung weiterer Testkonzentrationen wird mit emulgatorhaltigem Wasser verdünnt.
Chinakohlblattscheiben (Brassica pekinensis) werden mit einer Wirkstoffzubereitung der gewünschten Konzentration gespritzt und nach dem Abtrocknen mit Larven des Meerrettichblattkäfers (Phaedon cochleariae) besetzt.
Nach 7 Tagen wird die Wirkung in % bestimmt. Dabei bedeutet 100 %, dass alle Käferlarven abgetötet wurden; 0 % bedeutet, dass keine Käferlarven abgetötet wurden.

[3] = system: Myzus persicae; assay: Myzus persicae spray test; assay type: in vivo; conditions: foliar, 120 h, after 5 days, sprayed Chinese cabbage leaf discs (Brassica pekinensis) infested with all stages, 100 % = all aphids killed, read-out: Wirkung
Text: Lösungsmittel: • 78 Gewichtsteile Aceton • 1,5 Gewichtsteile Dimethylformamid Emulgator: Alkylarylpolyglykolether
as §1
Chinakohlblattscheiben (Brassica pekinensis), die von allen Stadien der Grünen Pfirsichblattlaus (Myzus persicae) befallen sind, werden mit einer Wirkstoffzubereitung der gewünschten Konzentration gespritzt.
Nach 5 Tagen wird die Wirkung in % bestimmt. Dabei bedeutet 100 %, dass alle Blattläuse abgetötet wurden; 0 % bedeutet, dass keine Blattläuse abgetötet wurden.

| chromatographic logP [1] | SMILES | mortality at 500 g/ha [2] | mortality at 500 g/ha [3] |
| --- | --- | --- | --- |
| 4.51 | CCSc1c(-c2nc3cc(C(F)(F)F)ncc3n2C)n(C)c2cc(Cl)ccc12 [Bsp. I-2, 2-(6-Chlor-3-ethylsulfanyl-1-methyl-indol-2-yl)-3-methyl-6-(trifluormethyl)imidazo[4,5-c]pyridin] |  |  |
| 3.11 | CCS(=O)(=O)c1c(-c2nc3cc(C(F)(F)F)ncc3n2C)n(C)c2cc(Cl)ccc12 [Bsp. I-1, 2-(6-Chlor-3-ethylsulfonyl-1-methyl-indol-2-yl)-3-methyl-6-(trifluormethyl)imidazo[4,5-c]pyridin] | 100% | 90% |
| 4.23 | Cn1c(-c2c(Cl)c3ccc(Cl)cc3n2C)nc2cc(C(F)(F)F)ncc21 [Bsp. V-1, 2-(3,6-Dichlor-1-methyl-indol-2-yl)-3-methyl-6-(trifluormethyl)imidazo[4,5-c]pyridin] |  |  |
